Reference: article PMC5342446, “Healthy CD4^+ T lymphocytes are not affected by targeted therapies against the PI3K/Akt/mTOR pathway in T-cell acute lymphoblastic leukemia” (Oncotarget, 2016)
Residues, ends and D or L forms follow the SMILES beside them. *: point of attachment. Cbz = O=C(OCc1ccccc1)*; CH2F = FC*

Experiments:
stimulated T lymphocytes = assay: MTT cell viability assay, stimulated (phytohemagglutinin) CD4+ T lymphocytes; format: cell-based, human; details: for effect on cell viability, alone: 24 h; for IC50: Homo sapiens, T-lymphocyte, 48 h, read-out: IC50 values of cells treated for 48 hours
Description: (§1) To determine how these inhibitors could affect the viability of the primary CD4^+ T lymphocytes (both unstimulated and stimulated) and T-ALL cells, we performed MTT assays. […] Except for the unstimulated T lymphocytes, BGT226 and the mTORC1/2 inhibitor Torin-2 turned out to be the most powerful drugs in these cells. For unstimulated T lymphocytes, there was no relevant inhibition for both drugs (IC50 > 2 μM).
(§2) Peripheral Blood CD4+ T lymphocytes from healthy donors were obtained with informed consent according to institutional guidelines and isolated with Ficoll-Paque and magnetic beads labelling protocols (Dynabeads, Monza MI, Italy). Whole blood or buffy coat were diluted with PBS containing 0.1% BSA and 0.6% Na-citrate or 2 mM EDTA (without Ca2+ and Mg2+) in ratio 1:1. Thirty-five ml of the diluted sample were layered over 15 ml of Ficoll-Paque medium and centrifuged at 600 g for 40 minutes at 20°C. The peripheral blood mononuclear cell (PMNC) layer was transferred to centrifuge tube containing three volumes of PBS and centrifuged at 100 g for 10 minutes at 20°C. This step was repeated twice, supernatant was discarded and cells were suspended in complete RPMI-1640 medium.
(§3) 500 μl PMNC were transferred into a test tube, at a density of 5 × 10^7 cells/ml supplemented with100 μl of heat inactivated FBS and antibody mix and incubated at 4°C for 20 minutes. Followed by addition of 4 ml isolation buffer and centrifuged at 350 g at 4°C for 8 minutes. The supernatant discarded, and the pelleted cells were suspended in 500 μl of isolation buffer, added with 500 μl of pre-warmed dynabeads and incubated for 15 min at 20°C. The cells bound to beads were resuspended using 4 ml isolation buffer. The supernatant containing the human CD4^+ T lymphocytes was obtained by placing the resuspended cells in magnet for 2 minutes. The human CD4^+ T lymphocytes were grown in complete RPMI-1640 medium with 10μg/ml phytohemagglutinin at a density of 1 × 10^6 cells/ml, in a CO2 incubator at 37°C for 24 h.
(§4) MTT (3-[4,5-Dimethylthythiazol-2-yl]-2,5-Diphenyltetrazolium Bromide) assays were performed to assess the sensitivity of cells to drugs, as described.

JURKAT cells = assay: MTT cell viability assay, JURKAT; format: cell-based, human; details: for effect on cell viability, alone: 24 h; for IC50: Homo sapiens, 48 h, read-out: IC50 values of cells treated for 48 hours
Description: as §1
(§5) T-acute lymphoblastic leukemia cell lines obtained from Deutsche Sammlung von Mikroorganismen und Zellkulturen GmbH (Braunschweig, Germany). JURKAT and MOLT-4 were maintained in RPMI-1640 medium supplemented with 10% heat-inactivated fetal bovine serum (FBS), 100 units/ml penicillin and […] streptomycin at a density of 0.5 to 2 × 10^6 cells/ml and were incubated at 37°C with 5% CO2.
as §4

[1] = tested on: unstimulated T lymphocytes; assay: MTT cell viability assay, unstimulated CD4+ T lymphocytes; format: cell-based; details: Homo sapiens, T-lymphocyte, 48 h, read-out: IC50 values of cells treated for 48 hours
Description: To determine how these inhibitors could affect the viability of the primary CD4^+ T lymphocytes (both unstimulated and stimulated) and T-ALL cells, we performed MTT assays. Cells were incubated for 48 h with the inhibitors, and then cell survival was analyzed (Figure 2A and Table 1). Except for the unstimulated T lymphocytes, BGT226 and the mTORC1/2 inhibitor Torin-2 turned out to be the most powerful drugs in these cells. For unstimulated T lymphocytes, there was no relevant inhibition for both drugs (IC50 > 2 μM).
as §2, §3, §4

MOLT-4 cells = assay: MTT cell viability assay, MOLT-4; format: cell-based, human; details: for IC50: Homo sapiens, MOLT-4, MTT, 48 h, read-out: IC50 values of cells treated for 48 hours
Description: as §1, §5, §4

| IC50 (MOLT-4 cells) [nM] | IC50 (JURKAT cells) [nM] | Structure (SMILES) | IC50 [1] [nM] | IC50 (stimulated T lymphocytes) [nM] | other results |
| --- | --- | --- | --- | --- | --- |
|  |  | CO/C1=C\C(C)=C\[C@@H](C)[C@@H](O)[C@@H](C)C/C(C)=C/C=C/[C@H](OC)[C@@H]([C@@H](C)[C@@H](O)[C@H](C)[C@@]2(O)C[C@@H](O)[C@H](C)[C@@H](C(C)C)O2)OC1=O [Bafilomycin A1] |  |  | effect on cell viability, alone (stimulated T lymphocytes; even at 4 μM): did not affect cell viability; effect on cell viability, alone (JURKAT cells; even at 4 μM): did not affect cell viability |
| 60 | 80 | COc1ccc(-c2ccc3ncc4c(c3c2)n(-c2ccc(N3CCNCC3)c(C(F)(F)F)c2)c(=O)n4C)cn1 [BGT226] | > 2000 | 1610 |  |
|  |  | COC(=O)C[C@H](NC(=O)[C@H](C)NC(=O)[C@@H](NC(=O)OCc1ccccc1)C(C)C)C(=O)CF [z-VAD-fmk] (Cbz-Val-Ala-Asp(OMe)-CH2F) |  |  | effect on cell viability, alone (stimulated T lymphocytes; 25 μM): no relevant effect on cell viability; effect on cell viability, alone (MOLT-4 cells; MOLT-4, alone, 25 μM, 24 h, MTT): no relevant effect on cell viability |
| 1580 | > 2000 | NC1(c2ccc(-c3nc4ccn5c(=O)[nH]nc5c4cc3-c3ccccc3)cc2)CCC1 [MK-2206] | > 2000 | > 2000 |  |
| 520 | 950 | FC(F)c1nc2ccccc2n1-c1nc(N2CCOCC2)nc(N2CCOCC2)n1 [ZSTK474] | > 2000 | > 2000 |  |
|  |  | Cn1cnc(N)c2ncnc1-2 [3-MA, 3-Methyladenine] |  |  | effect on cell viability, alone (stimulated T lymphocytes; even at 10 μM): did not affect cell viability; effect on cell viability, alone (JURKAT cells; even at 10 μM): did not affect cell viability |
| 100 | 100 | Nc1ccc(-c2ccc3ncc4ccc(=O)n(-c5cccc(C(F)(F)F)c5)c4c3c2)cn1 [Torin-2, 9-(6-aminopyridin-3-yl)-1-(3-(trifluoromethyl)phenyl)benzo[h][1,6]naphthyridin-2(1H)-one] | > 2000 | 1800 |  |
